From patent publication US20240118267A1, “CELL CULTURE GROWTH APPARATUS AND METHOD OF UNDERSIDE ATTACHMENT TO A SURFACE USING CELL SEEDING” (Georgia Tech Research Corporation, priority 2021, published 2024)
Structures can show the parent of a compound that is named as a salt. Values belong to the molecule of their own block, whether it stands above or below them.

Assays:
HUVEC = assay: Tolerance of HUVEC to puromycin in routine culture; assay type: cell-based, human; conditions: long time periods; unpublished observation
Excerpt: HUVEC maintenance in T-75 flasks. Primary Human Umbilical Vein Endothelial Cells were employed from ATCC (ATCC® PCS-100-013™) and expanded according to manufacturer instructions in Vascular Cell Basal Medium (ATCC® PCS-100-030™) supplemented with Endothelial Cell Growth Kit-VEGF (ATCC® PCS-100-041™) with added Penicillin-Streptomycin (Gibco™ 15140148) diluted 1:100 v:v. HUVECs were transduced to constitutively express RFP. […] Cells were passaged at 60-80% confluence according to manufacturer instructions, counted with Nexcelcom Cellometer Auto T4 Bright Field Cell Counter (Nexcelcom Bioscience) using Trypan Blue viability stain, and used below the passage 10 since expanding from ATCC.
Lentiviral transduction. H441 cells and HUVECs were transduced with lentivirus to constitutively express GFP and RFP, respectively. H441 cells were seeded in T-75 flasks at 0.75e6 cells/75 cm^2 and allowed to attach overnight. Then H441 cells were inoculated with GFP gene-bearing lentivirus with puromycin resistance (Brand, product #). Lentivirus (8 TU/cell) was suspended in H441 routine culture media with the addition of transfection reagent polybrene ([…]). The cells were inoculated overnight and then allowed to recover in routine cell culture media for 72 hours with media changes every 48 hours. […]

[1] = Sodium fluorescein permeability across epithelial-endothelial co-culture; assay type: in vitro ADME; conditions: human
[2] = tested on: primary human neutrophils; assay: Neutrophil transmigration to chemoattractant or sample in 96-well co-culture, counted by flow cytometry; assay type: cell-based; conditions: for number of counted transmigrated neutrophils versus chemoattractant dose: 3 healthy donors, 16 hours, two-way ANOVA p<0.0001
[3] = tested on: endothelium of H441-HUVEC co-culture; assay: Endothelial von Willebrand factor release after epithelial exposure; assay type: cell-based, human; conditions: epithelial side exposed for 10 minutes
Procedure: Staining and imaging. All stains used reagents from ThermoFisher's Image-iT™ Fixation/Permeabilization Kit (R37602) for washing, fixing, blocking, and permeabilization. For all stains, inserts were cut out and fixed on glass slides for 10 minutes at 37° C. For stains requiring permeabilization, the inserts were incubated with 0.5% Triton X (ImageIT kit) for 5 minutes at 37° C. All inserts were blocked for 1 hour at 37° C., counterstained with DAPI (1:1000 in PBS for 5 minutes) and mounted between two coverslips with ProLong™ Diamond Antifade Mountant (Invitrogen). F-actin. After fixation, permeabilization, and blocking, inserts were incubated for 1 hour at 37° C. in Alexa Fluor™ 647 Phalloidin (Invitrogen) diluted 1:20 from stock solution in 1% BSA (Image-iT™). ZO-1/e-cadherin co-stain. After fixation, permeabilization, and blocking, the primary antibodies (ZO-1 Rabbit anti-human polyclonal antibody, ThermoFisher 61-7300, 1:200; e-cadherin Mouse anti-human monoclonal antibody, ThermoFisher 13-1700, 1:2000) were suspended together in 1% BSA (Image-It Kit) and co-incubated with the inserts for 2 hours at 37° C. The secondary antibodies (Goat anti-Rabbit IgG, Alexa Fluor 405, Abcam ab 175665, 1:200; Goat anti-mouse IgG, Alexa Fluor 647, ThermoFisher A32728, 1:500) were suspended in 1% BSA and incubated with the filters for 2 hours at 37° C. […]

[4] = tested on: endothelium of H441-HUVEC co-culture; assay: IL-8 on the endothelial side of the H441/HUVEC co-culture (ELISA); assay type: cell-based, human; conditions: 24-hour exposure on the epithelial side
Procedure: Then, IL-8 produced on the endothelial side was measured by ELISA (R&D Systems). […] Statistics were performed in GraphPad Prism 9.
Cytokine quantitation. Cell culture supernatants were collected at specified intervals. IL-6 and IL-8 were quantified with ELISA assays according to manufacturer instructions (Human IL-6 DuoSet ELISA, R&D Systems DY206-05; Human IL-8/CXCL8 DuoSet ELISA, R&D Systems, DY208-05; DuoSet ELISA Ancillary Reagent Kit 2, R&D Systems; DY008.

Molecule: COc1ccc(C[C@H](N)C(=O)N[C@H]2[C@@H](O)[C@H](n3cnc4c(N(C)C)ncnc43)O[C@@H]2CO)cc1 [puromycin]
tolerance by HUVEC in routine culture medium (HUVEC): did not tolerate it well for long time periods

Papp at 2 h, 30 µM ([1]; H441/HUVEC co-culture at ALI, S.D. 1.63e-5 cm/s, 95% CI 1.53e-6-1.25e-5 cm/s): 7.04 ×10⁻⁶ cm/s
Papp at 3 h, 30 µM ([1]; control, no exposure, at ALI, over a 3-hour period, n=4, read-out: permeability of the control bilayer co-culture): 7.04 ×10⁻⁶ cm/s
Molecule: O=C1OC2(c3ccc(O)cc3Oc3cc(O)ccc32)c2ccccc21 [NaFL, Fluorescein sodium salt]

Molecule: CCCCC/C=C\C[C@@H](O)/C=C/C=C/C=C\[C@@H](O)CCCC(=O)O [LTB4, leukotriene B4]
number of counted transmigrated neutrophils versus chemoattractant dose [2]: effect of chemoattractant dose

Molecule: IL-8: recombinant human protein IL-8 (HEK-expressed, activity tested), chemoattractant
number of counted transmigrated neutrophils versus chemoattractant dose [2]: effect of chemoattractant dose
neutrophil transmigration numbers versus concentration ([2]; 18 hour transmigration time): increase

Molecule: polyinosinic:polycytidylic acid [poly(I:C)]
endothelial von Willebrand factor (VWF) exocytosis [3]: immediately exocytosed von Willebrand factor
endothelial release of IL-8 [4]: weakly dose-dependent
